Experiment: Inhibition of HIV-1 Mutant HIV-1 RT enzymes containing the single amino acid substitution V179D

| Structure (SMILES) | Ki [nM] |
| --- | --- |
| S=C(NCCOc1nc2cc(Cl)ccc2n2cccc12)Nc1ccc(Br)cn1 [1-(5-Bromo-pyridin-2-yl)-3-[2-(7-chloro-pyrrolo[1,2-a]quinoxalin-4-yloxy)-ethyl]-thiourea] | 70 |
| Cc1cc2nc(OCCNC(=S)Nc3ccc(Br)cn3)c3cccn3c2cc1C [1-(5-Bromo-pyridin-2-yl)-3-[2-(7,8-dimethyl-pyrrolo[1,2-a]quinoxalin-4-yloxy)-ethyl]-thiourea] | 800 |
